Assay results as given in ChEMBL document CHEMBL3593181, “Design and synthesis of benzothiazole-6-sulfonamides acting as highly potent inhibitors of carbonic anhydrase isoforms I, II, IX and XII” (Bioorg Med Chem, 2015).

Biological target: Carbonic anhydrase 9 (Homo sapiens, UniProt Q16790)
Assay: Inhibition of human carbonic anhydrase 9 by stopped flow CO2 hydration method

Row | Ki | SMILES
1 | 253 nM | Nc1cc(=O)[nH]c(SCC(=O)Nc2nc3ccc(S(N)(=O)=O)cc3s2)n1
2 | 282 nM | NS(=O)(=O)c1ccc2nc(NC(=O)CSc3nc(O)cc(=O)[nH]3)sc2c1
3 | 172 nM | Nc1nc(SCC(=O)Nc2nc3ccc(S(N)(=O)=O)cc3s2)nc2[nH]ncc12
4 | 244 nM | Nn1c(Cc2ccccc2)nnc1SCC(=O)Nc1nc2ccc(S(N)(=O)=O)cc2s1
5 | 135 nM | Nn1c(COc2ccc(Cl)cc2Cl)nnc1SCC(=O)Nc1nc2ccc(S(N)(=O)=O)cc2s1
6 | 4.8 nM | NS(=O)(=O)c1ccc(NCC(=O)Nc2nc3ccc(S(N)(=O)=O)cc3s2)cc1
7 | 276 nM | N#Cc1cnn(CC(=O)Nc2nc3ccc(S(N)(=O)=O)cc3s2)c1N
8 | 295 nM | CSc1nn(CC(=O)Nc2nc3ccc(S(N)(=O)=O)cc3s2)c(N)c1C#N
9 | 2.8 nM | Nc1ncnc2c1cnn2CC(=O)Nc1nc2ccc(S(N)(=O)=O)cc2s1
10 | 4.1 nM | NS(=O)(=O)c1ccc2nc(NC(=O)Cn3ncc4c(=O)[nH]cnc43)sc2c1
11 | 4.3 nM | CSc1nn(CC(=O)Nc2nc3ccc(S(N)(=O)=O)cc3s2)c2nc[nH]c(=O)c12
12 | 2.8 nM | N#Cc1cnn(CC(=O)Nc2nc3ccc(S(N)(=O)=O)cc3s2)c1NC(=S)Nc1ccccc1
13 | 3.9 nM | CSc1nn(CC(=O)Nc2nc3ccc(S(N)(=O)=O)cc3s2)c(NC(=S)Nc2ccccc2)c1C#N
14 | 2.6 nM | NS(=O)(=O)c1ccc2nc(NC(=S)N3CCN(C(=S)Nc4nc5ccc(S(N)(=O)=O)cc5s4)CC3)sc2c1
15 | 2.5 nM | CS/C(=N\c1nc2ccc(S(N)(=O)=O)cc2s1)NCCN/C(=N/c1nc2ccc(S(N)(=O)=O)cc2s1)SC
16 | 2.3 nM | CS/C(=N\c1nc2ccc(S(N)(=O)=O)cc2s1)N1CCN(/C(=N/c2nc3ccc(S(N)(=O)=O)cc3s2)SC)CC1

Row | SMILES | Ki
17 | Cc1ccc(OCc2nnc(SCC(=O)Nc3nc4ccc(S(N)(=O)=O)cc4s3)n2N)cc1Cl | 67.3 nM
18 | CSc1nn(CC(=O)Nc2nc3ccc(S(N)(=O)=O)cc3s2)c2ncnc(N)c12 | 2.7 nM
19 | NS(=O)(=O)c1ccc2nc(NC(=S)NCCNC(=S)Nc3nc4ccc(S(N)(=O)=O)cc4s3)sc2c1 | 2.1 nM
